In ChEMBL document CHEMBL1201862, “PubChem BioAssay data set” (2004) one finds EC50, AC50 and IC50 data, which are given here for 62 compounds.

The source made the active and inactive calls.

System in the first series: not listed separately
As to the kind of experiment: inhibitors of intracellular T. cruzi replication, confirmation, NIH3T3 host cells, beta-gal luminescence (AID 2044).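 Further: intracellular parasites grown in NIH/3T3 mouse fibroblasts as host cells; luminescent beta-galactosidase reporter signal from transgenic T. cruzi replicating inside host cells; inhibitors lower the luminescence signal.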 The series is classed as functional, cell-based.
Conditions: not given
`C=CCc1cc(Cl)ccc1OCCNCCN1CCOCC1`: the EC50 was 0.136 µM (active).

Regarding `Cc1ccc(C)c(NC(=N)Nc2nc(C)cc(C)n2)c1`, the EC50 was 1.2 µM (active).

System in another series: not listed separately
Briefly: cytotoxicity toward NIH3T3 fibroblasts, dose response, counter-screen, cell-based, ATP luminescence, mouse fibroblasts (AID 2010).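 Further: cells exposed to compound for about 90 hours before reading.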 The series is classed as functional.
Conditions: not given
As for `C=CCc1cc(Cl)ccc1OCCNCCN1CCOCC1`, the EC50 is reported as > 60 µM (not active).

As to `Cc1ccc(C)c(NC(=N)Nc2nc(C)cc(C)n2)c1`, the EC50 was > 60 µM (inconclusive).

The target of a further series is Cytochrome P450 2C19 (Homo sapiens, UniProt P33261). Briefly: Cytochrome panel assay with activity outcomes. Panel member name: p450-cyp2c19 Compounds with AC50 equal or less than 10 uM are considered active.
Sequence of Cytochrome P450 2C19 (P33261 whole entry): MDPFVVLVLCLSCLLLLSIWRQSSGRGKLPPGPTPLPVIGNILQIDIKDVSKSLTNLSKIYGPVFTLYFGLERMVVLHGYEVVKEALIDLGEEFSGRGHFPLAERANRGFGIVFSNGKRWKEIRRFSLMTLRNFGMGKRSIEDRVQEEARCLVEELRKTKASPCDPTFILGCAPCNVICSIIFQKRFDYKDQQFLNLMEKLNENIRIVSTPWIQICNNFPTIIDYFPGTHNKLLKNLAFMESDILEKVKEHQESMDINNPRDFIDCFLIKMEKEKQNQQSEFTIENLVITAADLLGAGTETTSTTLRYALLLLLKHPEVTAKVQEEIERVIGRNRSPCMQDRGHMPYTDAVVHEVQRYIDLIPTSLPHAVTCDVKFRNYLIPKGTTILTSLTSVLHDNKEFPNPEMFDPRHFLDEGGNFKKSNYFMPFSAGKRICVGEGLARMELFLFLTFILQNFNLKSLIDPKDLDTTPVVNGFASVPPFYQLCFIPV
Conditions: not given
The series is classed as functional.
Take `C[N+](C)(C)c1ncnc2c1ncn2[C@@H]1CCCCO1`: the AC50 result is reported as “inconclusive”.

As for `Nc1c(S(N)(=O)=O)cc(S(N)(=O)=O)cc1S(N)(=O)=O`, the AC50 entry was “inconclusive”.

For the compound `CCCc1cc(=O)[nH]c(=S)[nH]1` [PROPYLTHIOURACIL], the AC50 entry was “inconclusive”.

As to `Cc1ccc(C)c(NC(=N)Nc2nc(C)cc(C)n2)c1`, the AC50 entry is “inconclusive”.

As to `C/C(=C\C=C/[C@@H](C)C(=O)O)[C@H]1CN[C@H](C(=O)O)[C@@H]1CC(=O)O`, the AC50 result was “inconclusive”.

`CSC(=N)NCCC[C@@H](N)C(=O)O` [S-METHYL-D-THIOCITRULLINE]: the AC50 result is on record as “inconclusive”.

Still in this series, the particulars now being: read-out: AC50.
Consider `CCCc1ccc(-c2cc(C(=O)NN3CCOCC3)c3ccccc3n2)cc1`, for which the AC50 was 15.8 µM (inconclusive).

Consider `O=c1oc2ccccc2c(O)c1Cc1c(O)c2ccccc2oc1=O` [DICUMAROL], for which the AC50 was 10 µM (inconclusive).

As for `Cc1ccsc1-c1nc(-c2ccccc2)c(-c2ccccc2)[nH]1`, the AC50 was 10 µM (inconclusive).

Regarding `COc1ccc(OC)c(CNC(=O)CCNC(=O)Cn2ccc3ccccc3c2=O)c1`, the AC50 was 31.6 µM (inconclusive).

For `CC1(C)C2([N+](=O)[O-])CN3CC1([N+](=O)[O-])CN(C2)C3c1ccccc1` (stereo not given), the AC50 is 0.355 µM (inconclusive).

For `O=C(c1cccc(F)c1)N1CCC[C@@]2(CCN(c3ccncc3)C2)C1`, the AC50 was 2.51 µM (inconclusive).

With `Cc1cccc2nc(C(F)(F)F)nc(=O)n12`, the AC50 was 28.2 µM (inconclusive).

A further series deals with T1, Rac GTPase-activating protein 1 (Homo sapiens, UniProt Q9H0H5).
T1 sequence (Q9H0H5 whole entry): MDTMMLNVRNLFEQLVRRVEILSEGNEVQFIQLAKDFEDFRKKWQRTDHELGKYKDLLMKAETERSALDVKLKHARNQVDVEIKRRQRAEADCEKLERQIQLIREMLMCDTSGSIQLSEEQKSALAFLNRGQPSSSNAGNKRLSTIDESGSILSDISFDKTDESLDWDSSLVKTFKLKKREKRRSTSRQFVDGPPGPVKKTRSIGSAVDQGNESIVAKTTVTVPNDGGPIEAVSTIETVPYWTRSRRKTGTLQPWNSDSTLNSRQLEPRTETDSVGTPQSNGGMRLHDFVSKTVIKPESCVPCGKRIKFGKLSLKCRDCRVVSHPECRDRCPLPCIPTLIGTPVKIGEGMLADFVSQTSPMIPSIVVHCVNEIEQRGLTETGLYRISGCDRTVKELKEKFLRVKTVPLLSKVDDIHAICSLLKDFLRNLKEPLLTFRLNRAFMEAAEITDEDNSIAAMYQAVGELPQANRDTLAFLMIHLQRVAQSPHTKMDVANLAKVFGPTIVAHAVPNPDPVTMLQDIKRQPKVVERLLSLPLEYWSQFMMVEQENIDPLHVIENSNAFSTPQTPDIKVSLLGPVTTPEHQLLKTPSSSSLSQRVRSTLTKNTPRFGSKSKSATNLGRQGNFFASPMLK
Briefly: MgcRacGAP GTPase-activating activity inhibitors, confirmation, biochemical, ADP Hunter fluorescence, primary and confirmatory (AID 624330).
Conditions: not given
The series is classed as functional.
For the compound `N#C/C(=C\c1cccnc1)C(=O)Nc1cccc2ccccc12`, the IC50 was 157 µM (active).

With `Cc1cc(/C=C(\C#N)C(=O)N2CCCCC2)cc(C)c1O`, the IC50 was 59.4 µM (active).

Take `COc1ccc(N2CCN(CC(=O)Nc3cccc(S(=O)(=O)N4CCOCC4)c3)CC2)cc1`: the IC50 was 77.5 µM (active).

Take `CCN(CC)c1ccc(NC(=O)CN2C(=O)NC3(CCc4ccccc43)C2=O)cc1` (stereo not given): the IC50 is 89.8 µM (active).

For the compound `Cc1cc(C)c(C)c(OCCNCc2ccccc2)c1`, the IC50 was 105 µM (active).

Regarding `CCOc1ccc(OCCOCCN2CCCC2)cc1`, the IC50 was 109 µM (active).

In the case of `COc1ccc(NCc2cccnc2)cc1`, the IC50 is 53.1 µM (active).

On to `CCN1CCN(C(C)C(=O)NC2CCCCC2)CC1` (stereo not given), for which the IC50 is 75.6 µM (active).

Take `CCC(CC)N1CCN(C(=O)c2cccc(Cl)c2)CC1`: the IC50 was 193 µM (active).

For the compound `COc1cc(/C=C/C(=O)N[C@@H](Cc2c[nH]c3ccccc23)C(=O)O)ccc1O`, the IC50 is 80 µM (active).

`O=C(Cc1coc2cc(O)ccc12)NNC(=O)c1ccc(Br)s1`: the IC50 is 31.8 µM (active).

Turning to `CC(C)NCC#CCOc1ccc(Cl)cc1`, the IC50 is 162 µM (active).

Take `COc1ccccc1N1CCN(/N=C/c2cc(OC)c(O)c(OC)c2)CC1`: the IC50 is 252 µM (active).

On to `O=C(CC(c1ccccc1)c1ccccc1)Nc1ccc(O)cc1`, for which the IC50 is 47.2 µM (active).

As to `CCOc1cc(/C=C2/NC(=O)N(Cc3ccccc3F)C2=O)ccc1O`, the IC50 was 44.5 µM (active).

As for `O=C(CCc1ccc(O)c(O)c1)N/N=C/c1ccc2c(c1)OCO2`, the IC50 was 91.7 µM (active).

On to `C=CCc1cc(Cl)ccc1OCCNCCN1CCOCC1`, for which the IC50 is 90.8 µM (active).

`Brc1cccc(CNCCc2ccc3c(c2)OCO3)c1`: the IC50 is 179 µM (active).

In the case of `CSc1nc(C)c2c(n1)N(c1ccc(O)cc1)CC2`, the IC50 was 16.8 µM (active).

In the case of `CCc1cc(/C(Cc2cscn2)=N\O)c(O)cc1O`, the IC50 was 52 µM (active).

On to `COc1cc(/C=N/NC(=O)CCN2CCN(C(c3ccccc3)c3ccccc3)CC2)ccc1O`, for which the IC50 was 50.9 µM (active).

`COc1cc(/C=C/C(=O)OCC(=O)NCCCc2ccccc2)ccc1O`: the IC50 is 41.5 µM (active).

Regarding `CCN1CCN(CCCCOc2ccccc2F)CC1`, the IC50 is 70.1 µM (active).

Another series has as its target T2, Cytochrome P450 1A2 (Homo sapiens, UniProt P05177).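 Further: PubChem cytochrome P450 panel assay, CYP1A2 panel member.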
T2 sequence (P05177 whole entry): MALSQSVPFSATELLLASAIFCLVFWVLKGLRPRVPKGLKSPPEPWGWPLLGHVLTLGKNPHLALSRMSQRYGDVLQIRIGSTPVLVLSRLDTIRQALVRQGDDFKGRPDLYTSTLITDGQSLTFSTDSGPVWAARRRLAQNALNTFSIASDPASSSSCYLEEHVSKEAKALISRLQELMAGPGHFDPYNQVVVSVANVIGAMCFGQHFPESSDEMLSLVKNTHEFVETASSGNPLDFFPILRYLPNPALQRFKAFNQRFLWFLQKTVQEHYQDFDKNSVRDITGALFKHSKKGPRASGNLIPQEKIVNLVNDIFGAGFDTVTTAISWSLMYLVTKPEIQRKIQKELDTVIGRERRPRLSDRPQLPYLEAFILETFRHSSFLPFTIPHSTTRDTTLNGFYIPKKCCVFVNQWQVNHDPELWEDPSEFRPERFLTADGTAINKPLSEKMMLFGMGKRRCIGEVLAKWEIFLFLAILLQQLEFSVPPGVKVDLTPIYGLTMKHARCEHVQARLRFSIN
Conditions: not given
Consider `O=c1oc2ccccc2c(O)c1Cc1c(O)c2ccccc2oc1=O` [DICUMAROL], for which the AC50 was 12.6 µM (inconclusive).

In the case of `S=C=Nc1cccc(C2(N3CCCCC3)CCCCC2)c1`, the AC50 is 31.6 µM (inconclusive).

Turning to `O=C(O)CN1C(=O)CN=C(c2ccccn2)c2cc(Cl)ccc21`, the AC50 was 1.26 µM (inconclusive).

Consider `CC1CCC(NC(=O)CC(C)(C)Cc2nc(O)c3ccccc3n2)CC1` (stereo not given), for which the AC50 was 22.4 µM (inconclusive).

Turning to `CC[C@](N)(CCC(=O)O)C(=O)O`, the AC50 is 20 µM (inconclusive).

For the compound `COc1ncc2ncc(=O)n(CCC#N)c2n1`, the AC50 is 20 µM (inconclusive).

Regarding `CN1C[C@@H](CS(=O)(=O)N(C)C)C[C@H]2c3cccc4c3c(cn4C)C[C@@H]21`, the AC50 is 25.1 µM (inconclusive).

For `CC(C)(C)c1nc(SCC(=O)Nc2ccc3c(c2)OCCO3)c2ccccc2n1`, the AC50 was 10 µM (inconclusive).

In the case of `Cc1ccc(C)c(NC(=N)Nc2nc(C)cc(C)n2)c1`, the concentration at half-maximal activity (AC50) is 14.1 µM (inconclusive).

`COc1ccc(Oc2ncc3nc(CCc4ccccc4)c(=O)n(CCC#N)c3n2)cc1`: the AC50 is 6.31 µM (inconclusive).

For the compound `OC(Cc1nc2ccccc2[nH]1)c1ccccc1Cl` (stereo not given), the AC50 was 25.1 µM (inconclusive).

In the case of `Cc1noc(C)c1-c1cncnc1NCc1ccccc1`, the AC50 is 25.1 µM (inconclusive).

For the compound `O=C1Nc2ccccc2C2=N[C@@H](CN3CCN(c4ccccc4)CC3)CN12`, the AC50 is 20 µM (inconclusive).

`Cc1cccc2nc(C(F)(F)F)nc(=O)n12`: the AC50 is 0.0316 µM (inconclusive).

For the compound `COC(=O)[C@@]1(Cc2ccc(OC)cc2)[C@H]2c3cc(C(=O)N4CCCC4)n(CCc4c[nH]c5ccc(OC)cc45)c3C[C@H]2CN1C(=O)c1ccccc1`, the AC50 is 10 µM (inconclusive).

The target of a further series is Cytochrome P450 3A4 (Homo sapiens, UniProt P08684).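 Further: CYP3A4 tested as one member of a cytochrome P450 panel screen.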
Sequence of Cytochrome P450 3A4 (P08684 whole entry): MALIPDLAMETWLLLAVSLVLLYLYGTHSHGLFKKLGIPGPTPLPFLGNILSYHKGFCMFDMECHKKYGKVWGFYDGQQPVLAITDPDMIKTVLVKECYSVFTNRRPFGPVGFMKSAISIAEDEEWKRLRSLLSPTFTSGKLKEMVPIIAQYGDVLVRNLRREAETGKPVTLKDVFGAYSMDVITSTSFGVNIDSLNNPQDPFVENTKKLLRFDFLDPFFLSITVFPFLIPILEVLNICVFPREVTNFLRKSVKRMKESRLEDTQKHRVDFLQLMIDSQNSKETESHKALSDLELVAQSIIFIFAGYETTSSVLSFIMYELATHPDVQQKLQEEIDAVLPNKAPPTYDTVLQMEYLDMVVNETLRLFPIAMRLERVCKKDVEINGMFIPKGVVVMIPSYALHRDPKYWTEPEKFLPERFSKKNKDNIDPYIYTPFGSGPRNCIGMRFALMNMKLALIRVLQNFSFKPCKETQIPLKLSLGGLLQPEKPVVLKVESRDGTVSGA
Conditions: not given
For the compound `CCCc1ccc(-c2cc(C(=O)NN3CCOCC3)c3ccccc3n2)cc1`, the AC50 is 12.6 µM (inconclusive).

With `Nc1c2c(=O)oc(-c3ccccc3)cc2nn1-c1ccccc1`, the AC50 was 25.1 µM (inconclusive).

With `Cc1c(NC(=O)NC(C)N2C(=O)C3C4C=CC(C4)C3C2=O)c(=O)n(-c2ccccc2)n1C` (stereo not given), the AC50 is 25.1 µM (inconclusive).

Consider `COc1ccc(NC(=O)N2CC3(CCN(C(=O)c4ccc(OC)cc4)CC3)C2)cc1`, for which the AC50 is 25.1 µM (inconclusive).

As to `CC[C@]1(O)C[C@@H]2CN(CCc3c([nH]c4ccccc34)[C@](C(=O)OC)(c3cc4c(cc3OC)N(C=O)[C@H]3[C@@](O)(C(=O)OC)[C@H](C(=O)OC)[C@@]5(CC)C=CCN6CC[C@]43[C@H]65)C2)C1`, the AC50 is 25.1 µM (inconclusive).

On to `O=C(Nc1ccc(Cl)cc1)OCCn1nnnc1C(c1ccccc1Cl)N1CCOCC1` (stereo not given), for which the AC50 was 0.891 µM (inconclusive).

As to `O=C1CCCC=C1[C@@H](O)COCc1ccccc1`, the AC50 is 3.16 µM (inconclusive).

Turning to `CN(Cc1ccco1)c1ncnc2ccc(-c3ccccc3C#N)cc12`, the AC50 was 31.6 µM (inconclusive).

Turning to `CNC(=O)[C@@H]1O[C@@H](n2cnc3c(NCc4ccc(N)cc4)ncnc32)[C@@H](O)[C@H]1O`, the AC50 is 25.1 µM (inconclusive).

Consider `Cn1c(=O)c(-c2ccccc2)nc2cncnc21`, for which the AC50 is 12.6 µM (inconclusive).

Regarding `Cc1cc(C)c(S(=O)(=O)N2CCN(c3ccc([N+](=O)[O-])c(NCC4CCCO4)c3)CC2)c(C)c1` (stereo not given), the AC50 was 3.55 µM (inconclusive).

As to `O=C1[C@H]2[C@H]3[C@H](O)[C@H](O)C/C(=N/OC[C@@H](O)COCc4ccco4)[C@@H]3CC[C@@H]2C(=O)N1C1CCCCC1`, the AC50 was 5.01 µM (inconclusive).

Consider `COc1ccccc1CNc1ncncc1-c1cccc(C#N)c1`, for which the AC50 was 0.316 µM (inconclusive).

As for `CC(=O)c1cc(CC=C(C)C)c(O)cc1O`, the AC50 is 1.41 µM (inconclusive).

Take `CC(=O)NCCNc1nc(-c2ccccc2C(F)(F)F)nc2ccccc12`: the AC50 is 12.6 µM (inconclusive).
